Experimental data from PMC6009888, “Design, synthesis, and pharmacological evaluation of 2-amino-5-nitrothiazole derived semicarbazones as dual inhibitors of monoamine oxidase and cholinesterase: effect of the size of aryl binding site” (Journal of Enzyme Inhibition and Medicinal Chemistry, 2017).
“Also recorded” adds a separate entry of the source. Where two headings read alike, the source gives them in different places.

Columns and labels:
[1] = biological target: T1, equine serum BuChE (Equus caballus, UniProt P81908); experiment: In vitro BuChE inhibition assay (Ellman's method, equine serum BuChE); assay type: biochemical
T1 construct: equine serum BuChE was used as enzyme; purchased Sigma-Aldrich; host or cells: equine serum
Procedure: About 30 µl of enzyme sample (AChE) was added to 60 µl of 20 mM sodium phosphate buffer (pH 7.4) and were incubated in the presence of 30 µl of 10 mM DTNB solution with different concentrations of the test compounds. The enzyme reaction was initiated by the addition of 30 µl of 0.8 mM ACTI. The mixtures were incubated for 15 min at 25 °C. […] Control experiments were carried out without inhibitor, and blanks were run without AChE enzyme. All the assays were performed in triplicate. IC50 values were determined using the GraphPad Prism 5.0 (San Diego, CA) and the results were expressed as mean ± SEM.
The BuChE activity was assayed as per the procedure followed for AChE activity except that equine serum BuChE was used as enzyme and butyrylthiocholine iodide (BuTI) was used as substrate.
0, 15, 30 and 60 min at 25 °C in sodium phosphate buffer (20 mM, pH 7.4) and DTNB solution (10 mM). […] The reaction was further incubated at 25 °C for a further 15 min and the residual enzyme activities were measured and the bar graphs were constructed. All measurements were carried out in triplicate and are expressed as mean ± SEM.

[2] = tested on: mice; experiment: Neurotoxicity screening (rotarod test); assay type: in vivo; settings: for Neurotoxicity (animals that exhibit toxicity / animals tested): 30 mg/kg i.p.; for Neurotoxicity (verdict in words): 30 mg/kg, relative to phenytoin
In short: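 Male albino mice (CF-1 or Swiss, 18–25 g) got 30 mg/kg i.p. in 0.5% methylcellulose/water or PEG 200. Motor impairment was checked on a 3.2 cm rotarod turning at 6 rpm. Neurotoxicity meant failure to stay on the rod ≥1 min in each of three trials.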

[3] = physchem
[4] = In vitro DPPH radical scavenging assay; settings: test sample 100 µg/ml, 100 µM methanolic DPPH, 30 min, 517 nm
Procedure: Antioxidant activity of the synthesised compounds (10 mg/ml) was evaluated using the radical scavenging capability against the stable free radical, 2,2′-diphenyl-1-picryl hydrazyl (DPPH·). The DPPH· scavenging capability was determined using UV based spectrophotometric assay. About 200 µl of the test sample solution (100 µg/ml) was added to 4 ml of 100 µM methanolic DPPH. […] Ascorbic acid (100 µg/ml) was used as reference. The percentage inhibition of DPPH activity was estimated using the formula: Percent (%) inhibition of DPPH activity = Acontrol-Asample/Acontrol×100 where Acontrol is the absorbance of DPPH· in methanol without an antioxidant and Asample is the absorbance of DPPH· in the presence of an antioxidant.

[5] = equine serum BuChE, BuTI substrate, mean ± SEM, read-out: BuChE In vitro IC50 (µM) ± SEM

T1 sequence (P81908 whole entry): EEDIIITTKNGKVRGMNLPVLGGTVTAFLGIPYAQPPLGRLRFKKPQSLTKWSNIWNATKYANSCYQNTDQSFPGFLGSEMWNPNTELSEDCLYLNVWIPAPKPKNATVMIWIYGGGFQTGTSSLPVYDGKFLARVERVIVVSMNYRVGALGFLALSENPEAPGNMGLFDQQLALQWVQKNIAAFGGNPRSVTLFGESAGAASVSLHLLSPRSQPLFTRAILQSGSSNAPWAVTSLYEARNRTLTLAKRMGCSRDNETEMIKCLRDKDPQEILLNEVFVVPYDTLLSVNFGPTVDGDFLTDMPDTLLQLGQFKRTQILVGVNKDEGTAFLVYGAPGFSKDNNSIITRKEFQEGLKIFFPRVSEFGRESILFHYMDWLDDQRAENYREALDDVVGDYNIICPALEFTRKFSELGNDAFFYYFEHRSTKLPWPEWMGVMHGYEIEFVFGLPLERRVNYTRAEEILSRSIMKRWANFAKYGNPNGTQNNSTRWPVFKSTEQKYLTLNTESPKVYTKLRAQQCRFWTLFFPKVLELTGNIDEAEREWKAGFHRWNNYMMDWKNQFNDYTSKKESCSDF

CC(=NNC(=O)Nc1ncc([N+](=O)[O-])s1)c1ccc(Br)cc1 [Compound 4, 1-(1-(4-Bromophenyl)ethylidene)-4-(5-nitrothiazol-2-yl)semicarbazide]
IC50 [1, 5]: 0.499 ± 0.003 µM
Neurotoxicity (animals that exhibit toxicity / animals tested) ([2]; 0.5 h): 0/4
Neurotoxicity (animals that exhibit toxicity / animals tested) ([2]; 1 h): 0/4
Neurotoxicity (animals that exhibit toxicity / animals tested) ([2]; 2 h): 0/4
Neurotoxicity (animals that exhibit toxicity / animals tested) ([2]; 4 h): 0/4
Neurotoxicity (verdict in words) [2]: non-neurotoxic
logP ([3]; octanol/water): 2.2
% inhibition of DPPH activity [4]: 58.68%

CC(=NNC(=O)Nc1ncc([N+](=O)[O-])s1)c1ccc(Cl)cc1 [Compound 5, 1-(1-(4-Chlorophenyl)ethylidene)-4-(5-nitrothiazol-2-yl)semicarbazide]
IC50 [1, 5]: 0.553 ± 0.038 µM
Neurotoxicity (animals that exhibit toxicity / animals tested) ([2]; 0.5 h): 0/4
Neurotoxicity (animals that exhibit toxicity / animals tested) ([2]; 1 h): 0/4
Neurotoxicity (animals that exhibit toxicity / animals tested) ([2]; 2 h): 0/4
Neurotoxicity (animals that exhibit toxicity / animals tested) ([2]; 4 h): 0/4
logP ([3]; octanol/water): 2.1
% inhibition of DPPH activity [4]: 51.83%

O=C(NN=C(c1ccc(Cl)cc1)c1ccc(Cl)cc1)Nc1ncc([N+](=O)[O-])s1 [Compound 19, 1-(Bis(4-chlorophenyl)methylene)-4-(5-nitrothiazol-2-yl)semicarbazide]
IC50 [1]: 5.72 ± 0.874 µM
BuChE: fold less active relative to compound 17 ([1]; diaryl analogues): ~238 fold
Neurotoxicity (animals that exhibit toxicity / animals tested) ([2]; 0.5 h): 0/4
Neurotoxicity (animals that exhibit toxicity / animals tested) ([2]; 1 h): 0/4
Neurotoxicity (animals that exhibit toxicity / animals tested) ([2]; 2 h): 0/4
Neurotoxicity (animals that exhibit toxicity / animals tested) ([2]; 4 h): 0/4
logP [3]: 3.9
% inhibition of DPPH activity [4]: 24.03%

O=C(NN=C1C(=O)Nc2ccc(Br)cc21)Nc1ncc([N+](=O)[O-])s1 [Compound 21, 1-(5-Bromo-2-oxoindolin-3-ylidene)-4–(5-nitrothiazol-2-yl)semicarbazide]
IC50 [1, 5]: 5.37 ± 0.278 µM
BuChE: fold reduction in activity compared to compound 4 ([1]; ratio of IC50 values): ~10.75 fold
BuChE: fold reduction in activity compared to compound 5 ([1]; ratio of IC50 values): ~9.7 fold
Neurotoxicity (animals that exhibit toxicity / animals tested) ([2]; 0.5 h): 1/4
Neurotoxicity (animals that exhibit toxicity / animals tested) ([2]; 1 h): 0/4
Neurotoxicity (animals that exhibit toxicity / animals tested) ([2]; 2 h): 0/4
Neurotoxicity (animals that exhibit toxicity / animals tested) ([2]; 4 h): 0/4
Neurotoxicity (verdict in words) [2]: mildly neurotoxic; also recorded: slightly neurotoxic
logP ([3]; octanol/water): 1.9
% inhibition of DPPH activity [4]: 65.65%
